Assay results published in the NIST ThermoML archive (doi:10.1016/j.jct.2008.10.008).
Several values for one entry are separate records, joined by “and”; a condition that tells them apart may be missing. Identical values can stand only once. ± gives the expanded uncertainty stated by the source.

Columns and labels:
[1] = for vapor or sublimation pressure: Inclined piston gauge
[2] = Molar enthalpy of transition or fusion
[3] = molar heat capacity at saturation pressure

CC(C)(C)c1ccc(C(C)(C)C)cc1 [1,4-bis(1,1-dimethylethyl)benzene]
Details | Triple point temperature [K] | molar heat capacity | vapor or sublimation pressure [kPa]
[1], 319.99 K, Crystal 2 | – | – | 0.0214 ± 0.001
[1], 329.99 K, Crystal 2 | – | – | 0.0543 ± 0.0011
[1], 339.98 K, Crystal 2 | – | – | 0.1315 ± 0.0012
[1], 349.98 K, Crystal 2 | – | – | 0.2996 ± 0.0013
[1], 354.98 K, Liquid | – | – | 0.4031 ± 0.0015
[1], 359.98 K, Liquid | – | – | 0.5294 ± 0.0017
[1], 369.98 K, Liquid | – | – | 0.8897 ± 0.0021
[1], 379.97 K, Liquid | – | – | 1.445 ± 0.0028
[1], 387.02 K, Liquid | – | – | 1.996 ± 0.0034
[1], 389.97 K, Liquid | – | – | 2.276 ± 0.0039
[1], 394.97 K, Liquid | – | – | 2.825 ± 0.0044
[1], Crystal, Adiabatic calorimetry | 350.78 ± 0.04 | – | –
[3], 5 K, Crystal 2 | – | 0.22 ± 0.008 J/K/mol | –
[3], 5.533 K, Crystal 2 | – | 0.3 ± 0.008 J/K/mol | –
[3], 6.588 K, Crystal 2 | – | 0.58 ± 0.008 J/K/mol | –
[3], 7.503 K, Crystal 2 | – | 0.948 ± 0.02 J/K/mol | –
[3], 8.461 K, Crystal 2 | – | 1.45 ± 0.02 J/K/mol | –
[3], 9.448 K, Crystal 2 | – | 2.15 ± 0.02 J/K/mol | –
[3], 10 K, Crystal 2 | – | 2.66 ± 0.03 J/K/mol | –
[3], 10.47 K, Crystal 2 | – | 3.13 ± 0.02 J/K/mol | –
[3], 11.6 K, Crystal 2 | – | 4.28 ± 0.03 J/K/mol | –
[3], 12.86 K, Crystal 2 | – | 5.92 ± 0.04 J/K/mol | –
[3], 14.25 K, Crystal 2 | – | 7.97 ± 0.04 J/K/mol | –
[3], 15.79 K, Crystal 2 | – | 10.43 ± 0.05 J/K/mol | –
[3], 17.5 K, Crystal 2 | – | 13.43 ± 0.06 J/K/mol | –
[3], 19.42 K, Crystal 2 | – | 16.89 ± 0.07 J/K/mol | –
[3], 20 K, Crystal 2 | – | 17.93 ± 0.07 J/K/mol | –
[3], 21.58 K, Crystal 2 | – | 20.82 ± 0.07 J/K/mol | –
[3], 24 K, Crystal 2 | – | 25.18 ± 0.07 J/K/mol | –
[3], 26.71 K, Crystal 2 | – | 29.9 ± 0.07 J/K/mol | –
[3], 29.7 K, Crystal 2 | – | 34.78 ± 0.07 J/K/mol | –
[3], 30 K, Crystal 2 | – | 35.25 ± 0.07 J/K/mol | –
[3], 33.02 K, Crystal 2 | – | 39.81 ± 0.07 J/K/mol | –
[3], 36.72 K, Crystal 2 | – | 44.96 ± 0.07 J/K/mol | –
[3], 40 K, Crystal 2 | – | 49.12 ± 0.07 J/K/mol | –
[3], 40.81 K, Crystal 2 | – | 50.11 ± 0.07 J/K/mol | –
[3], 45.31 K, Crystal 2 | – | 55.45 ± 0.083 J/K/mol | –
[3], 50 K, Crystal 2 | – | 60.83 ± 0.083 J/K/mol | –
[3], 50.28 K, Crystal 2 | – | 61.18 ± 0.083 J/K/mol | –
[3], 53.35 K, Crystal 2 | – | 64.41 ± 0.083 J/K/mol | –
[3], 55.8 K, Crystal 2 | – | 67 ± 0.091 J/K/mol | –
[3], 58.24 K, Crystal 2 | – | 69.81 ± 0.091 J/K/mol | –
[3], 60 K, Crystal 2 | – | 71.59 ± 0.091 J/K/mol | –
[3], 63.85 K, Crystal 2 | – | 75.62 ± 0.1 J/K/mol | –
[3], 70 K, Crystal 2 | – | 82.39 ± 0.11 J/K/mol | –
[3], 70.16 K, Crystal 2 | – | 82.56 ± 0.11 J/K/mol | –
[3], 77.05 K, Crystal 2 | – | 90.04 ± 0.12 J/K/mol | –
[3], 80 K, Crystal 2 | – | 93.26 ± 0.12 J/K/mol | –
[3], 84.6 K, Crystal 2 | – | 98.29 ± 0.12 J/K/mol | –
[3], 87.33 K, Crystal 2 | – | 101.34 ± 0.12 J/K/mol | –
[3], 90 K, Crystal 2 | – | 104.26 ± 0.15 J/K/mol | –
[3], 92.81 K, Crystal 2 | – | 107.36 ± 0.16 J/K/mol | –
[3], 95.36 K, Crystal 2 | – | 110.2 ± 0.16 J/K/mol | –
[3], 100 K, Crystal 2 | – | 115.33 ± 0.16 J/K/mol | –
[3], 101.84 K, Crystal 2 | – | 117.33 ± 0.16 J/K/mol | –
[3], 104.42 K, Crystal 2 | – | 120.11 ± 0.16 J/K/mol | –
[3], 113.87 K, Crystal 2 | – | 130.45 ± 0.17 J/K/mol | –
[3], 120 K, Crystal 2 | – | 137.01 ± 0.17 J/K/mol | –
[3], 124.55 K, Crystal 2 | – | 141.81 ± 0.17 J/K/mol | –
[3], 136.29 K, Crystal 2 | – | 154.01 ± 0.17 J/K/mol | –
[3], 140 K, Crystal 2 | – | 157.79 ± 0.18 J/K/mol | –
[3], 148.14 K, Crystal 2 | – | 166.03 ± 0.18 J/K/mol | –
[3], 160 K, Crystal 2 | – | 177.95 ± 0.19 J/K/mol | –
[3], 160.18 K, Crystal 2 | – | 178.15 ± 0.19 J/K/mol | –
[3], 172.27 K, Crystal 2 | – | 190.18 ± 0.2 J/K/mol | –
[3], 180 K, Crystal 2 | – | 197.9 ± 0.2 J/K/mol | –
[3], 184.35 K, Crystal 2 | – | 202.24 ± 0.2 J/K/mol | –
[3], 196.47 K, Crystal 2 | – | 214.21 ± 0.21 J/K/mol | –
[3], 200 K, Crystal 2 | – | 217.74 ± 0.21 J/K/mol | –
[3], 208.62 K, Crystal 2 | – | 226.43 ± 0.22 J/K/mol | –
[3], 220 K, Crystal 2 | – | 238.04 ± 0.22 J/K/mol | –
[3], 220.76 K, Crystal 2 | – | 238.82 ± 0.22 J/K/mol | –
[3], 232.87 K, Crystal 2 | – | 251.39 ± 0.22 J/K/mol | –
[3], 240 K, Crystal 2 | – | 258.93 ± 0.23 J/K/mol | –
[3], 246.43 K, Crystal 2 | – | 265.79 ± 0.23 J/K/mol | –
[3], 260 K, Crystal 2 | – | 280.44 ± 0.24 J/K/mol | –
[3], 261.46 K, Crystal 2 | – | 282.02 ± 0.24 J/K/mol | –
[3], 276.43 K, Crystal 2 | – | 298.62 ± 0.25 J/K/mol | –
[3], 280 K, Crystal 2 | – | 302.57 ± 0.25 J/K/mol | –
[3], 284.66 K, Crystal 2 | – | 307.57 ± 0.26 J/K/mol | –
[3], 291.28 K, Crystal 2 | – | 315.23 ± 0.26 J/K/mol | –
[3], 293.84 K, Crystal 2 | – | 318.28 ± 0.26 J/K/mol | –
[3], 298.15 K, Crystal 2 | – | 323.15 ± 0.27 J/K/mol | –
[3], 298.15 K, Liquid | – | 347.84 ± 0.27 J/K/mol | –
[3], 300 K, Crystal 2 | – | 325.26 ± 0.27 J/K/mol | –
[3], 300 K, Liquid | – | 349.41 ± 0.27 J/K/mol | –
[3], 302.67 K, Crystal 2 | – | 328.3 ± 0.27 J/K/mol | –
[3], 304.12 K, Crystal 2 | – | 330 ± 0.27 J/K/mol | –
[3], 305.99 K, Crystal 2 | – | 332.26 ± 0.27 J/K/mol | –
[3], 310 K, Liquid | – | 357.8 ± 0.28 J/K/mol | –
[3], 315.02 K, Crystal 2 | – | 342.89 ± 0.27 J/K/mol | –
[3], 320 K, Crystal 2 | – | 348.63 ± 0.27 J/K/mol | –
[3], 320 K, Liquid | – | 366 ± 0.28 J/K/mol | –
[3], 327.23 K, Crystal 2 | – | 357.27 ± 0.28 J/K/mol | –
[3], 330 K, Liquid | – | 374.03 ± 0.29 J/K/mol | –
[3], 339.27 K, Crystal 2 | – | 372.29 ± 0.29 J/K/mol | –
[3], 340 K, Crystal 2 | – | 373.15 ± 0.29 J/K/mol | –
[3], 340 K, Liquid | – | 381.92 ± 0.29 J/K/mol | –
[3], 340.54 K, Crystal 2 | – | 373.89 ± 0.29 J/K/mol | –
[3], 350 K, Liquid | – | 389.72 ± 0.3 J/K/mol | –
[3], 350.73 K, Crystal 1 | – | 375.72 ± 0.29 J/K/mol | –
[3], 350.73 K, Crystal 2 | – | 386.83 ± 0.29 J/K/mol | –
[3], 350.78 K, Crystal 1 | – | 375.79 ± 0.29 J/K/mol | –
[3], 350.78 K, Liquid | – | 390.31 ± 0.3 J/K/mol | –
[3], 354.93 K, Liquid | – | 393.57 ± 0.3 J/K/mol | –
[3], 356.83 K, Liquid | – | 395.01 ± 0.3 J/K/mol | –
[3], 358.46 K, Liquid | – | 396.37 ± 0.3 J/K/mol | –
[3], 358.5 K, Liquid | – | 396.23 ± 0.3 J/K/mol and 396.2 ± 0.3 J/K/mol | –
[3], 360 K, Liquid | – | 397.37 ± 0.3 J/K/mol | –
[3], 363.7 K, Liquid | – | 400.3 ± 0.3 J/K/mol | –
[3], 366.52 K, Liquid | – | 402.21 ± 0.3 J/K/mol | –
[3], 374.01 K, Liquid | – | 407.95 ± 0.31 J/K/mol | –
[3], 380 K, Liquid | – | 412.36 ± 0.31 J/K/mol | –
[3], 380.16 K, Liquid | – | 412.53 ± 0.31 J/K/mol | –
[3], 395.48 K, Liquid | – | 423.8 ± 0.32 J/K/mol | –
[3], 398.2 K, Liquid | – | 425.82 ± 0.32 J/K/mol | –
[3], 400 K, Liquid | – | 427.09 ± 0.32 J/K/mol | –
[3], 416.83 K, Liquid | – | 439.37 ± 0.32 J/K/mol | –
[3], 417.39 K, Liquid | – | 439.74 ± 0.32 J/K/mol | –
[3], 420 K, Liquid | – | 441.61 ± 0.32 J/K/mol | –
[3], 433.85 K, Liquid | – | 451.62 ± 0.32 J/K/mol | –
[3], 435.24 K, Liquid | – | 452.59 ± 0.32 J/K/mol | –
[3], 440 K, Liquid | – | 456.08 ± 0.32 J/K/mol | –

Details | Molar enthalpy of transition or fusion, [2] [kcal/mol] | Triple point temperature, [1] [K]
Crystal 1 | 1.9627 ± 0.0012 | –
Crystal 2 | 3.4321 ± 0.00239 | 350.73 ± 0.01
